PubChem BioAssay AID330 (DTP/NCI, 2004)
Several values for one entry are separate records, joined by “and”; a condition that tells them apart may be missing. Equal entries are not always repeated. Inconclusive results and toxic doses are left out.

System: P388 leukemia ip, CD2F1 mice, survival T/C
Assay: NCI In Vivo Anticancer Drug Screen. Data for tumor model P388 Leukemia (intraperitoneal) in CD2F1 (CDF1) mice
Conditions: endpoint: median survival time, higher = longer survival
Procedure, shortened: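 Mice carrying the transplanted tumor received test compound or vehicle. Survival was recorded in each group, and the value is the treated-group measurement divided by that of the vehicle-treated control group.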

[1] = dose: 50.0 mg/kg/injection, schedule: Q01DX009 (ip), vehicle: saline with Tween-80
[2] = dose: 100.0 mg/kg/injection, schedule: Q01DX009 (ip), vehicle: saline with Tween-80
[3] = dose: 200.0 mg/kg/injection, schedule: Q01DX009 (ip), vehicle: saline with Tween-80
[4] = dose: 50.0 mg/kg/injection, schedule: Q01DX005 (ip), vehicle: Klucel (hydroxypropylcellulose) (HPC)
[5] = dose: 100.0 mg/kg/injection, schedule: Q01DX005 (ip), vehicle: Klucel (hydroxypropylcellulose) (HPC)
[6] = dose: 200.0 mg/kg/injection, schedule: Q01DX005 (ip), vehicle: Klucel (hydroxypropylcellulose) (HPC)
[7] = dose: 15.0 mg/kg/injection, schedule: Q01DX005 (ip), vehicle: saline with Tween-80
[8] = dose: 60.0 mg/kg/injection, schedule: Q01DX005 (ip), vehicle: saline with Tween-80
[9] = dose: 120.0 mg/kg/injection, schedule: Q01DX005 (ip), vehicle: saline with Tween-80
[10] = dose: 50.0 mg/kg/injection, schedule: Q01DX005 (ip), vehicle: saline with Tween-80
[11] = dose: 100.0 mg/kg/injection, schedule: Q01DX005 (ip), vehicle: saline with Tween-80
[12] = dose: 200.0 mg/kg/injection, schedule: Q01DX005 (ip), vehicle: saline with Tween-80

Structure (SMILES): O=c1[nH][nH]c2c1SCc1ccccc1-2
- T/C [1]: 110 % of control
- T/C [2]: 117 % of control
- T/C [3]: 86 % of control

Structure (SMILES): CCCc1cc2c(=O)c(C(=O)OC)c[nH]c2cc1N(CC)CC
- T/C [4]: 96 % of control
- T/C [5]: 100 % of control
- T/C [6]: 104 % of control

Structure (SMILES): CCCCCCC(=O)Oc1ccc[nH]c1=O
- T/C (dose: 25.0 mg/kg/injection, schedule: Q01DX009 (ip), vehicle: distilled water + Tween-80): 104 % of control
- T/C (dose: 50.0 mg/kg/injection, schedule: Q01DX009 (ip), vehicle: distilled water + Tween-80): 100 % of control
- T/C (dose: 100.0 mg/kg/injection, schedule: Q01DX009 (ip), vehicle: distilled water + Tween-80): 97 % of control
- T/C (dose: 200.0 mg/kg/injection, schedule: Q01DX009 (ip), vehicle: distilled water + Tween-80): 100 % of control
- T/C (dose: 400.0 mg/kg/injection, schedule: Q01DX009 (ip), vehicle: distilled water + Tween-80): 100 % of control

Structure (SMILES): [N-]=[N+]=NC1(N=[N+]=[N-])C(=O)c2cccc3c2N(CCC3)C1=O (centres undefined)
- T/C [4]: 92 % of control
- T/C [5]: 114 % of control
- T/C [6]: 88 % of control

Structure (SMILES): c1ccc2c(c1)N=C(NNC1=Nc3ccccc3SC1)CS2
- T/C [7]: 95 % of control
- T/C (dose: 30.0 mg/kg/injection, schedule: Q01DX005 (ip), vehicle: saline with Tween-80): 92 % of control
- T/C [8]: 88 % of control

Structure (SMILES): CCOC(=O)C(=O)Cc1nc2ccccc2nc1C
- T/C [8]: 93 % of control
- T/C [9]: 97 % of control

Structure (SMILES): CCOC1OCN(C(C)C)CC1(C)C (centres undefined)
- T/C (dose: 25.0 mg/kg/injection, schedule: Q01DX009 (ip), vehicle: saline with Tween-80): 98 % of control

Structure (SMILES): O=NN(C(=O)NCc1cccnc1)C1CCCCC1
- T/C (dose: 25.0 mg/kg/injection, schedule: Q01DX001 (ip), vehicle: distilled water + Tween-80): 115 % of control
- T/C (dose: 50.0 mg/kg/injection, schedule: Q01DX001 (ip), vehicle: distilled water + Tween-80): 110 % of control
- T/C (dose: 100.0 mg/kg/injection, schedule: Q01DX001 (ip), vehicle: distilled water + Tween-80): 106 % of control
- T/C (dose: 200.0 mg/kg/injection, schedule: Q01DX001 (ip), vehicle: distilled water + Tween-80): 102 % of control
- T/C (dose: 400.0 mg/kg/injection, schedule: Q01DX001 (ip), vehicle: distilled water + Tween-80): 102 % of control

Structure (SMILES): CCN1CC2(OC(=O)c3ccccc3NC(C)=O)CCC(OC)C34C1C(CC23)C1(O)CC(OC)C2CC4C1(O)C2OC (centres undefined)
- T/C (dose: 4.0 mg/kg/injection, schedule: Q01DX009 (ip), vehicle: Klucel (hydroxypropylcellulose) (HPC)): 92 % of control
- T/C (dose: 8.0 mg/kg/injection, schedule: Q01DX009 (ip), vehicle: Klucel (hydroxypropylcellulose) (HPC)): 94 % of control
- T/C (dose: 16.0 mg/kg/injection, schedule: Q01DX009 (ip), vehicle: Klucel (hydroxypropylcellulose) (HPC)): 97 % of control
- T/C (dose: 32.0 mg/kg/injection, schedule: Q01DX009 (ip), vehicle: Klucel (hydroxypropylcellulose) (HPC)): 91 % of control

Structure (SMILES): Cc1cc(/C=C2\SC(=S)NC2=O)cc(C)c1O
- T/C [10]: 110 % of control
- T/C [11]: 94 % of control
- T/C [12]: 90 % of control

Structure (SMILES): CCCCCCCCn1nnnc1C(F)(F)F
- T/C [10]: 100 % of control
- T/C [11]: 102 % of control
- T/C [12]: 102 % of control

Structure (SMILES): Cc1cc[n+](C2C(=O)c3ccccc3C(=O)C2Nc2cc(Cl)ccc2Cl)cc1 (centres undefined)
- T/C [8]: 106 % of control
- T/C [9]: 108 % of control
- T/C (dose: 240.0 mg/kg/injection, schedule: Q01DX005 (ip), vehicle: saline with Tween-80): 105 % of control

Structure (SMILES): O=C(NC1CCCCC1)C(=O)c1cc(Cl)c(Cl)c(Cl)c1Cl
- T/C [1]: 106 % of control
- T/C [2]: 114 % of control
- T/C [3]: 103 % of control

Structure (SMILES): CN(N=O)c1ccc(/C=C/c2ccnc3ccccc23)cc1
- T/C (dose: 88.0 mg/kg/injection, schedule: Q01DX009 (ip), vehicle: saline with Tween-80): 113 % of control
- T/C (dose: 132.0 mg/kg/injection, schedule: Q01DX009 (ip), vehicle: saline with Tween-80): 118 % of control
- T/C [3]: 154 % of control

Structure (SMILES): CCOC(=O)Nc1ccc(SCC2COC(Cn3ccnc3)(c3ccc(Cl)cc3Cl)O2)cc1 (centres undefined)
- T/C (dose: 12.5 mg/kg/injection, schedule: Q01DX001 (ip), vehicle: saline): 104 % of control
- T/C (dose: 25.0 mg/kg/injection, schedule: Q01DX001 (ip), vehicle: saline): 107 % of control
- T/C (dose: 50.0 mg/kg/injection, schedule: Q01DX001 (ip), vehicle: saline): 110 % of control

Structure (SMILES): COc1ccc(NC(=O)/C=C\C(=O)O)cc1OC
- T/C [10]: 96 % of control
- T/C [11]: 96 % of control
- T/C [12]: 96 % of control

Structure (SMILES): O=C1CS(=O)(=O)C(c2cccnc2)N1CCN1C(=O)CS(=O)(=O)C1c1cccnc1 (centres undefined)
- T/C (dose: 100.0 mg/kg/injection, schedule: Q04DX002 (ip), vehicle: saline with Tween-80): 97 % of control
- T/C (dose: 200.0 mg/kg/injection, schedule: Q04DX002 (ip), vehicle: saline with Tween-80): 93 % of control
- T/C (dose: 400.0 mg/kg/injection, schedule: Q04DX002 (ip), vehicle: saline with Tween-80): 92 % of control

Structure (SMILES): CCCCCCC(=O)/C=C/c1ccc(OC)cc1OC
- T/C [1]: 94 % of control
- T/C [2]: 91 % of control
- T/C [3]: 91 % of control

Structure (SMILES): CCC[CH2][Sn]1([CH2]CCC)[O]C2C(O)OC(CO)C(O)C2[O]1 (centres undefined)
- T/C (dose: 1.56 mg/kg/injection, schedule: Q04DX003 (ip), vehicle: saline): 107 % of control
- T/C (dose: 3.12 mg/kg/injection, schedule: Q04DX003 (ip), vehicle: saline): 107 % of control and 109 % of control
- T/C (dose: 6.25 mg/kg/injection, schedule: Q04DX003 (ip), vehicle: saline): 111 % of control

Structure (SMILES): Cc1ccc(NC(=O)Nc2cccnc2)cc1NC(=O)Nc1cccnc1
- T/C (dose: 50.0 mg/kg/injection, schedule: Q01DX009 (ip), vehicle: Klucel (hydroxypropylcellulose) (HPC)): 102 % of control
- T/C (dose: 100.0 mg/kg/injection, schedule: Q01DX009 (ip), vehicle: Klucel (hydroxypropylcellulose) (HPC)): 110 % of control
- T/C (dose: 200.0 mg/kg/injection, schedule: Q01DX009 (ip), vehicle: Klucel (hydroxypropylcellulose) (HPC)): 100 % of control

Structure (SMILES): COc1cc2c(c(OC)c1OC)-c1ccc(OC)c(=O)cc1C(N(C)C(=O)CO)CC2 (centres undefined)
- T/C (dose: 0.16 mg/kg/injection, schedule: Q01DX009 (ip), vehicle: Klucel (hydroxypropylcellulose) (HPC)): 120 % of control and 123 % of control
- T/C (dose: 0.31 mg/kg/injection, schedule: Q01DX009 (ip), vehicle: Klucel (hydroxypropylcellulose) (HPC)): 155 % of control
- T/C (dose: 0.62 mg/kg/injection, schedule: Q01DX009 (ip), vehicle: Klucel (hydroxypropylcellulose) (HPC)): 166 % of control
- T/C (dose: 0.62 mg/kg/injection, schedule: Q01DX009 (ip), vehicle: saline): 189 % of control
- T/C (dose: 1.25 mg/kg/injection, schedule: Q01DX009 (ip), vehicle: Klucel (hydroxypropylcellulose) (HPC)): 112 % of control and 212 % of control

Structure (SMILES): CCN(CC)CCCOc1ncnc2ccc(Cl)cc12
- T/C (dose: 25.0 mg/kg/injection, schedule: Q01DX005 (ip), vehicle: saline): 98 % of control
- T/C (dose: 50.0 mg/kg/injection, schedule: Q01DX005 (ip), vehicle: saline): 99 % of control
- T/C (dose: 100.0 mg/kg/injection, schedule: Q01DX005 (ip), vehicle: saline): 93 % of control
- T/C (dose: 200.0 mg/kg/injection, schedule: Q01DX005 (ip), vehicle: saline): 96 % of control

Structure (SMILES): c1ccc(N=c2cnc3c(ccc4ccccc43)o2)cc1
- T/C (dose: 3.75 mg/kg/injection, schedule: Q01DX005 (ip), vehicle: saline with Tween-80): 102 % of control
- T/C (dose: 7.5 mg/kg/injection, schedule: Q01DX005 (ip), vehicle: saline with Tween-80): 112 % of control
- T/C [7]: 107 % of control and 116 % of control
- T/C [8]: 115 % of control

Structure (SMILES): O=C(O)c1cc([N+](=O)[O-])cc([N+](=O)[O-])c1Sc1ncccn1
- T/C (dose: 50.0 mg/kg/injection, schedule: Q01DX009 (ip), vehicle: saline): 96 % of control
- T/C (dose: 100.0 mg/kg/injection, schedule: Q01DX009 (ip), vehicle: saline): 100 % of control
- T/C (dose: 200.0 mg/kg/injection, schedule: Q01DX009 (ip), vehicle: saline): 101 % of control

Structure (SMILES): O=P1(c2ccccc2)CCCCN1 (centres undefined)
- T/C (dose: 100.0 mg/kg/injection, schedule: Q04DX003 (ip), vehicle: saline): 104 % of control
- T/C (dose: 200.0 mg/kg/injection, schedule: Q04DX003 (ip), vehicle: saline): 110 % of control
- T/C (dose: 400.0 mg/kg/injection, schedule: Q04DX003 (ip), vehicle: saline): 110 % of control

Structure (SMILES): CCC(=O)Nc1nnc(SCCCCCCSc2nnc(NC(=O)CC)s2)s1
- T/C [4]: 90 % of control
- T/C [5]: 88 % of control
- T/C [6]: 91 % of control
